From paper PMC10584170, “Machine learning-based phenotypic imaging to characterise the targetable biology of Plasmodium falciparum male gametocytes for the development of transmission-blocking antimalarials” (PLOS Pathogens, 2023)
pIC50: −log10 of the molar value. Like-named read-outs stand apart in the source and are kept apart here.

Assays:
[1] = system: P. falciparum male gametocytes; experiment: P. falciparum Dual Gamete Formation Assay (PfDGFA), male readout (exflagellation); assay type: cell-based, Plasmodium falciparum NF54; details: for Selectivity Ratio M: HepG2 Tox50 versus male IC50; for pIC50: PfDGFA, 24 h incubation with gametocytes before induction, exflagellation readout, read-out: Male IC50; for HitlevelM: number of replicates with >50% inhibition in the male readout
In short: (§1)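 Read-outs are automated image counts of exflagellation centres (brightfield, 10 frames over 1 s) and Pfs25-positive female gametes (Cy3 fluorescence).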

[2] = system: P. falciparum female gametocytes; experiment: P. falciparum Dual Gamete Formation Assay (PfDGFA), female readout (Pfs25-positive female gametes); assay type: cell-based, Plasmodium falciparum NF54; details: for Selectivity ratio F: HepG2 Tox50 versus female IC50; for pIC50: PfDGFA, 24 h incubation with gametocytes before induction, female gamete readout, read-out: Female IC50; for HitlevelF: number of replicates with >50% inhibition in the female readout
In short: as §1

[3] = system: HepG2 cells; experiment: HepG2 cytotoxicity counter-screen; details: cytotoxic activity against HepG2 cells
[4] = Plasmodium falciparum, 2µM, 24h preincubation with gametocytes, average of replicates, read-out: Average inhibition male (%)
[5] = Plasmodium falciparum, 2µM, 24h preincubation with gametocytes, replicate R1, read-out: % inhibition male (individual replicates) R1
[6] = Plasmodium falciparum, 2µM, 24h preincubation with gametocytes, replicate R2, read-out: % inhibition male (individual replicates) R2
[7] = Plasmodium falciparum, 2µM, 24h preincubation with gametocytes, replicate R3, read-out: % inhibition male (individual replicates) R3
[8] = Plasmodium falciparum, 2µM, 24h preincubation with gametocytes, replicate R4, read-out: % inhibition male (individual replicates) R4
[9] = Plasmodium falciparum, 2µM, 24h preincubation with gametocytes, average of replicates, read-out: Average inhibition female (%)
[10] = Plasmodium falciparum, 2µM, 24h preincubation with gametocytes, replicate R1, read-out: % inhibition female (individual replicates) R1
[11] = Plasmodium falciparum, 2µM, 24h preincubation with gametocytes, replicate R2, read-out: % inhibition female (individual replicates) R2
[12] = Plasmodium falciparum, 2µM, 24h preincubation with gametocytes, replicate R3, read-out: % inhibition female (individual replicates) R3
[13] = Plasmodium falciparum, 2µM, 24h preincubation with gametocytes, replicate R4, read-out: % inhibition female (individual replicates) R4
[14] = Plasmodium falciparum, PfDGFA at 2µM, 24h preincubation with gametocytes, average of replicates, read-out: Average inhibition male (%)
[15] = Plasmodium falciparum, PfDGFA at 2µM, 24h preincubation with gametocytes, replicate R1, read-out: % inhibition male (individual replicates) R1
[16] = Plasmodium falciparum, PfDGFA at 2µM, 24h preincubation with gametocytes, replicate R2, read-out: % inhibition male (individual replicates) R2
[17] = Plasmodium falciparum, PfDGFA at 2µM, 24h preincubation with gametocytes, replicate R3, read-out: % inhibition male (individual replicates) R3
[18] = Plasmodium falciparum, PfDGFA at 2µM, 24h preincubation with gametocytes, replicate R4, read-out: % inhibition male (individual replicates) R4
[19] = Plasmodium falciparum, PfDGFA at 2µM, 24h preincubation with gametocytes, average of replicates, read-out: Average inhibition female (%)
[20] = Plasmodium falciparum, PfDGFA at 2µM, 24h preincubation with gametocytes, replicate R1, read-out: % inhibition female (individual replicates) R1
[21] = Plasmodium falciparum, PfDGFA at 2µM, 24h preincubation with gametocytes, replicate R2, read-out: % inhibition female (individual replicates) R2
[22] = Plasmodium falciparum, PfDGFA at 2µM, 24h preincubation with gametocytes, replicate R3, read-out: % inhibition female (individual replicates) R3
[23] = Plasmodium falciparum, PfDGFA at 2µM, 24h preincubation with gametocytes, replicate R4, read-out: % inhibition female (individual replicates) R4
[24] = 2µM, 24h preincubation with gametocytes, average of replicates
[25] = 2µM, 24h preincubation with gametocytes, replicate R1
[26] = 2µM, 24h preincubation with gametocytes, replicate R3
[27] = 2µM, 24h preincubation with gametocytes, replicate R4
[28] = PfDGFA at 2µM, 24h preincubation with gametocytes, average of replicates
[29] = PfDGFA at 2µM, 24h preincubation with gametocytes, replicate R1
[30] = PfDGFA at 2µM, 24h preincubation with gametocytes, replicate R3
[31] = PfDGFA at 2µM, 24h preincubation with gametocytes, replicate R4

SMILES | pIC50 ([1]; Plasmodium falciparum) | pIC50 ([2]; Plasmodium falciparum) | pIC50 [1] | pIC50 [2] | Selectivity Ratio M [1] | Selectivity ratio F [2] | Tox50 [3] | HitlevelM ([1]; 2µM) | HitlevelF ([2]; 2µM) | Average inhibition male (%) [1, 24] | % inhibition male (individual replicates) R1 [1, 25] | % inhibition male (individual replicates) R3 [1, 26] | % inhibition male (individual replicates) R4 [1, 27] | Average inhibition female (%) [2, 24] | % inhibition female (individual replicates) R1 [2, 25] | % inhibition female (individual replicates) R3 [2, 26] | % inhibition female (individual replicates) R4 [2, 27] | further results
Cc1cc(Nc2ccncc2)n2nc(C)c(-c3ccc(Cl)cc3)c2n1 [TCMDC-124478] | 6.02 | < 5.00 |  |  | 68.63 | 6.55 | 65.53 µM |  |  |  |  |  |  |  |  |  |  | inhibition at 2 µM [1, 4]: 95.5%; inhibition at 2 µM [1, 5]: 96.8%; inhibition at 2 µM [1, 6]: 90.6%; inhibition at 2 µM [1, 7]: 96.8%; inhibition at 2 µM [1, 8]: 98%; inhibition at 2 µM [2, 9]: 2.4%; inhibition at 2 µM [2, 10]: -1.3%; inhibition at 2 µM [2, 11]: -8.5%; inhibition at 2 µM [2, 12]: 24.2%; inhibition at 2 µM [2, 13]: -4.9%
Cc1sc2ncnc(Sc3nnc(N)s3)c2c1C [TCMDC-124542] | 5.85 | 6.13 |  |  | 46.96 | 89.35 | 66.05 µM | 3 | 4 |  |  |  |  |  |  |  |  | inhibition at 2 µM [1, 14]: 69.3%; inhibition at 2 µM [1, 15]: 92.1%; inhibition at 2 µM [1, 16]: 95.8%; inhibition at 2 µM [1, 17]: 87%; inhibition at 2 µM [1, 18]: 2.3%; inhibition at 2 µM [2, 19]: 86.8%; inhibition at 2 µM [2, 20]: 95.8%; inhibition at 2 µM [2, 21]: 96.9%; inhibition at 2 µM [2, 22]: 102%; inhibition at 2 µM [2, 23]: 52.6%
O=C(O)C(=O)O.Oc1c(CN2CCC(Cc3ccccc3)CC2)cc(Cl)c2cccnc12 [TCMDC-124594] |  |  | 5.70 | 5.94 | 2.09 | 3.66 | 4.17 µM |  |  | 92.4% | 97.5% | 93.3% | 86.9% | 49.8% | 37.8% | 58.8% | 51.4% | 
O=C(c1ccc([N+](=O)[O-])o1)N1CCC(Cc2ccc(C(F)(F)F)cc2)CC1 [TCMDC-124805] | 6.40 | 6.36 |  |  | 70.69 | 64.48 | 28.45 µM |  |  |  |  |  |  |  |  |  |  | inhibition at 2 µM [1, 4]: 101%; inhibition at 2 µM [1, 5]: 98.9%; inhibition at 2 µM [1, 6]: 100%; inhibition at 2 µM [1, 7]: 102%; inhibition at 2 µM [1, 8]: 102%; inhibition at 2 µM [2, 9]: 55.8%; inhibition at 2 µM [2, 10]: 35.5%; inhibition at 2 µM [2, 11]: 62.7%; inhibition at 2 µM [2, 12]: 38.2%; inhibition at 2 µM [2, 13]: 86.7%
Cc1ccccc1OCC(O)CNC1CCC(NCC(O)COc2ccccc2C)CC1 (centres unmarked) [TCMDC-125142] |  |  | 5.71 | 5.87 | 2.74 | 3.94 | 5.33 µM | 4 | 1 |  |  |  |  |  |  |  |  | Average inhibition male (%) [1, 28]: 76.7%; % inhibition male (individual replicates) R1 [1, 29]: 73.4%; % inhibition male (individual replicates) R3 [1, 30]: 61.7%; % inhibition male (individual replicates) R4 [1, 31]: 90.9%; Average inhibition female (%) [2, 28]: 34.1%; % inhibition female (individual replicates) R1 [2, 29]: 36.4%; % inhibition female (individual replicates) R3 [2, 30]: 18.2%; % inhibition female (individual replicates) R4 [2, 31]: 27.5%
CCC1CN2CCc3cc(OC)c(OC)cc3C2CC1CC1NCCc2cc(OC)c(OC)cc21.Cl (centres unmarked) [TCMDC-125849] | 5.45 | 6.12 |  |  |  |  | 27.47 µM |  |  |  |  |  |  |  |  |  |  | HitlevelM ([1]; 2µM, 24h preincubation): 2; inhibition at 2 µM ([1]; Plasmodium falciparum, 2µM, 24h preincubation with gametocytes prior to induction of gametogenesis, average of replicates, read-out: Average inhibition male (%)): 47.7%; inhibition at 2 µM ([1]; Plasmodium falciparum, 2µM, 24h preincubation with gametocytes prior to induction of gametogenesis, replicate R1, read-out: % inhibition male (individual replicates) R1): 38.6%; inhibition at 2 µM ([1]; Plasmodium falciparum, 2µM, 24h preincubation with gametocytes prior to induction of gametogenesis, replicate R2, read-out: % inhibition male (individual replicates) R2): 27.6%; inhibition at 2 µM ([1]; Plasmodium falciparum, 2µM, 24h preincubation with gametocytes prior to induction of gametogenesis, replicate R3, read-out: % inhibition male (individual replicates) R3): 59.3%; inhibition at 2 µM ([1]; Plasmodium falciparum, 2µM, 24h preincubation with gametocytes prior to induction of gametogenesis, replicate R4, read-out: % inhibition male (individual replicates) R4): 65.1%; HitlevelF ([2]; 2µM, 24h preincubation): 4; times more potent against females than males ([2]; PfDGFA female versus male gametocytes): 4.7; inhibition at 2 µM ([2]; Plasmodium falciparum, 2µM, 24h preincubation with gametocytes prior to induction of gametogenesis, average of replicates, read-out: Average inhibition female (%)): 93.3%; inhibition at 2 µM ([2]; Plasmodium falciparum, 2µM, 24h preincubation with gametocytes prior to induction of gametogenesis, replicate R1, read-out: % inhibition female (individual replicates) R1): 91%; inhibition at 2 µM ([2]; Plasmodium falciparum, 2µM, 24h preincubation with gametocytes prior to induction of gametogenesis, replicate R2, read-out: % inhibition female (individual replicates) R2): 79%; inhibition at 2 µM ([2]; Plasmodium falciparum, 2µM, 24h preincubation with gametocytes prior to induction of gametogenesis, replicate R3, read-out: % inhibition female (individual replicates) R3): 103%; inhibition at 2 µM ([2]; Plasmodium falciparum, 2µM, 24h preincubation with gametocytes prior to induction of gametogenesis, replicate R4, read-out: % inhibition female (individual replicates) R4): 100%

Now from value to compound, other results behind:

pIC50 ([1]; Plasmodium falciparum) | pIC50 ([2]; Plasmodium falciparum) | pIC50 [1] | pIC50 [2] | SMILES | Selectivity Ratio M [1] | Selectivity ratio F [2] | Tox50 [3] | HitlevelM ([1]; 2µM) | HitlevelF ([2]; 2µM) | Average inhibition male (%) [1, 24] | % inhibition male (individual replicates) R1 [1, 25] | % inhibition male (individual replicates) R3 [1, 26] | % inhibition male (individual replicates) R4 [1, 27] | Average inhibition female (%) [2, 24] | % inhibition female (individual replicates) R1 [2, 25] | % inhibition female (individual replicates) R3 [2, 26] | % inhibition female (individual replicates) R4 [2, 27] | further results
6.42 | 6.60 |  |  | Cc1ccc(-n2c(Sc3ncnc4sccc34)nnc2N2CCCC2)cc1 [TCMDC-125247] | 192.28 | 296.87 | 73.14 µM | 4 | 3 |  |  |  |  |  |  |  |  | inhibition at 2 µM [1, 14]: 74.6%; inhibition at 2 µM [1, 15]: 86.9%; inhibition at 2 µM [1, 16]: 67.1%; inhibition at 2 µM [1, 17]: 80.2%; inhibition at 2 µM [1, 18]: 64.2%; inhibition at 2 µM [2, 19]: 63.5%; inhibition at 2 µM [2, 20]: 56.4%; inhibition at 2 µM [2, 21]: 85.8%; inhibition at 2 µM [2, 22]: 26.4%; inhibition at 2 µM [2, 23]: 85.4%
 |  | 5.88 | 5.35 | CCCC(N)C(=O)NC1CCN(c2c(F)c(N)c3c(=O)c(C(=O)O)cn4c3c2Oc2ccccc2-4)C1.Cl (centres unmarked) [TCMDC-125701] | 2.29 | 0.68 | 2.99 µM |  |  | 89.8% | 87.0% | 88.1% | 95.7% | 53.0% | 43.9% | 47.1% | 70.9% | 
 |  | 6.30 | 6.32 | S=C(NN=Cc1ccccn1)NC1CC2C=CC1C2 (centres unmarked) [TCMDC-125752] | 0.29 | 0.3 | 0.14 µM |  |  | 101.0% | 99.9% | 101.6% | 102.9% | 59.8% | 34.4% | 45.5% | 74.2% | 
 |  | 5.73 | 5.28 | COc1ccc(CCNCCCCCCNCCc2ccc(Cl)c3ccccc23)cc1OC.Cl [TCMDC-131270] | 2.16 | 0.76 | 4.03 µM |  |  | 92.0% | 90.1% |  | 89.1% | 44.5% | 48.1% | 32.3% | 35.6% | 
